How the values were obtained:
hSSTR5 = biological target: T1, hSSTR5 (Homo sapiens, UniProt P35346); experiment: SSTR5 antagonistic activity in vitro by calcium flow detection (hSSTR5-CHO-Gα16 cells); type: cell-based; conditions: for IC50: hSSTR5-CHO-Gα16 cells, 100 nM Somatostatin-14 agonist, Fluo-4 fluorescence 525 nm; for SSTR5 antagonistic activity (in words): summary of Table 1
T1 construct: expressed in transfected cells; host or cells: CHO cells co-expressing Gα16 (hSSTR5-CHO-Gα16)
Description: (§1) Testing SSTR5 antagonistic activity in vitro by Calcium flow detection method Experimental principle: After the receptor binds to the ligand and is activated, it can cause the activation of Gα16 protein, which further activates phospholipase C(PLC) to produce IP3 and DAG. IP3 can bind to the IP3 receptors on the endoplasmic reticulum and mitochondria in the cell, thereby causing the release of intracellular calcium. Therefore, measuring the changes in intracellular calcium can be used in the method to detect the activation state of hSSTR5. Fluo-4/AM is a calcium fluorescent probe indicator used to measure calcium ions. As a non-polar lipid-soluble compound, after it enters the cell, the AM group therein dissociates, and Fluo-4 is released under the action of cellular lipase; because Fluo-4 is a polar molecule and is not easy to pass through the lipid bilayer membrane, it can keep Fluo-4 in the cell fora longtime. Finally, the level of Ga protein activation can be reflected by measuring the intensity of the excited fluorescence. Somatostatin, an agonist of SSTR5, can activate SSTR5 receptors and greatly increase the calcium flow response. The SSTR5 antagonist to be tested can inhibit the agonist activity of the SSTR5 receptor and reduce the calcium increased flow response of the receptor stimulated by the agonist.
(§2) • (1) The hSSTR5-CHO-Gα16 and mSSTR5-CHO-Gα16 cell lines stably expressing hSSTR5 or mSSTR5 receptors were seeded at a density of 30,000/well in a 96-well plate and cultured in a 37° C. incubator overnight. • (2) The cells was aspirated off the culture medium, added with freshly prepared dye at 40 μL/well, and incubated in a 37° C. incubator for 45 minutes. • (3) After the dye was aspirated and discarded, the cells were washed with freshly prepared calcium buffer and the culture medium was replaced with 50 μL of calcium buffer. • (4) The SSTR5 agonist Somatostatin-14 was diluted and mixed evenly with calcium buffer. • (5) Detection was performed using a Flextation instrument. Starting from the 15th second, 25 μL of the pre-prepared agonist was automatically added by the instrument, and the fluorescence value at 525 nm was read.

mSSTR5 = biological target: T2, mSSTR5 (Mus musculus, UniProt O08858); experiment: SSTR5 antagonistic activity in vitro by calcium flow detection (mSSTR5-CHO-Gα16 cells); type: cell-based; conditions: 100 nM Somatostatin-14 agonist, Fluo-4 fluorescence 525 nm
T2 construct: expressed in transfected cells; host or cells: CHO cells co-expressing Gα16 (mSSTR5-CHO-Gα16)
T2 sequence (O08858 1-362): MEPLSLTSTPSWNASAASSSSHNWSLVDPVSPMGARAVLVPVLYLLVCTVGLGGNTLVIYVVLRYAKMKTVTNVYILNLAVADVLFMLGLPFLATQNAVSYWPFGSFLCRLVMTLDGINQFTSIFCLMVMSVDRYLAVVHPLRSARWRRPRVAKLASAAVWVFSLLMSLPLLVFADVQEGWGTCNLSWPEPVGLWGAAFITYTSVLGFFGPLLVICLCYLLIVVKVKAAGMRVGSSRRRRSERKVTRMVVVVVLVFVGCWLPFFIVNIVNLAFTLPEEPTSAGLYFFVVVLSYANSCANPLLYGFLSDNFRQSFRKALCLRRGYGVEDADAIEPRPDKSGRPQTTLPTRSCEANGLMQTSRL
Description: as §1, §2

T1 sequence (P35346 whole entry): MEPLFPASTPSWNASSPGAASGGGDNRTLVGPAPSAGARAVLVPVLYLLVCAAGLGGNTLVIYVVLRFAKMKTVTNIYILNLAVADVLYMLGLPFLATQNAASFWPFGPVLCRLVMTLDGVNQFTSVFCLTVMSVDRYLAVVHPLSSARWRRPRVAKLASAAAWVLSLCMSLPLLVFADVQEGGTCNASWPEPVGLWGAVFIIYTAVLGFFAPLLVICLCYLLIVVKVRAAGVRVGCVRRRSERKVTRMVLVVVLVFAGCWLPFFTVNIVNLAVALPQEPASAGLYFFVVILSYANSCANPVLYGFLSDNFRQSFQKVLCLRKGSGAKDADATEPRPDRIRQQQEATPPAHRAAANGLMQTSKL

SMILES	IC50 (hSSTR5) [nM]	SSTR5 antagonistic activity (in words) (hSSTR5)	IC50 (mSSTR5) [nM]
CCOc1cc(CN2CCC3(CC2)CCN(c2ccc(C(=O)O)cc2)C(=O)C3)cc(OCC)c1-c1ccc(F)cc1 [Example 3, 4-(9-((2,6-diethoxy-4′-fluoro-[1,1′-biphenyl]-4-yl)methyl)-2-oxo-3,9-diazaspiro[5.5]undec-3-yl)benzoic acid]	50 to 200		
CCOc1cc(CN2CC3(CC(Nc4ccc(C(=O)O)cc4)C3)C2)cc(OCC)c1-c1ccc(F)cc1 [Example 6, 4-((2-((2,6-diethoxy-4′-fluoro-[1,1′-biphenyl]-4-yl)methyl)-2-azaspiro[3.3]heptane-6-yl)amino)benzoic acid]	> 200		
CCOc1cc(CN2CC3(CC(=O)N(c4ccc(C(=O)O)cc4)C3)C2)c(C2CC2)cc1C [Example 8, 4-(2-(2-cyclopropyl-5-ethoxy-4-methylbenzyl)-7-oxo-2,6-diazaspiro[3.4]octane-6-yl)benzoic acid]	50 to 200		
CCOc1ccc(C2CC2)c(CN2CC3(CC(=O)N(c4ccc(C(=O)O)cc4)C3)C2)c1 [Example 9, 4-(2-(2-cyclopropyl-5-ethoxybenzyl)-7-oxo-2,6-diazaspiro[3.4]octyl-6-yl)benzoic acid]	50 to 200		
CCOc1cc(CN2CCC3(CC2)CN(c2ccc(C(=O)O)cc2)C3)cc(OCC)c1-c1ccc(F)cc1 [Example 10, 4-(7-((2,6-diethoxy-4′-fluoro-[1,1′-biphenyl]-4-yl)methyl)-2,7-diazaspiro[3.5]nonan-2-yl)benzoic acid]	0.1 to 50	potent SSTR5 antagonistic activity	0.1 to 50
CCOc1cc(CN2CCC3(CC2)CC(NS(=O)(=O)c2ccc(OC(F)(F)F)cc2)C3)cc(OCC)c1-c1ccc(F)cc1 [Example 11, N-(7-((2,6-diethoxy-4′-fluoro-[1,1′-biphenyl]-4-yl)methyl)-7-azaspiro[3.5]nonan-2-yl)-4-(trifluoromethoxy)benzenesulfonamide]	50 to 200		0.1 to 50
CCOc1cc(CN2CCN(C3CCN(S(=O)(=O)c4ccc(C(=O)O)cc4)CC3)CC2)cc(OCC)c1-c1ccc(F)cc1 [Example 15, 4-((4-(4-((2,6-diethoxy-4′-fluoro-[1,1′-biphenyl]-4-yl)methyl)piperazin-1-yl)piperidin-1-yl)sulfonyl)benzoic acid]	> 200		
CCOc1cc(CN2CCN(S(=O)(=O)c3ccc(C(=O)O)cc3)CC2)cc(OCC)c1-c1ccc(F)cc1 [Example 17, 4-((4-((2,6-diethoxy-4′-fluoro-[1,1′-biphenyl]-4-yl)methyl)piperazin-1-yl)sulfonyl)benzoic acid]	50 to 200		
CCOc1cc(CN2CCC3(CC2)CN(c2ccc(C(=O)O)cc2)C3)c(C2CC2)cc1C [Example 19, 4-(7-(2-cyclopropyl-5-ethoxy-4-methylbenzyl)-2,7-diazaspiro[3,5]nonan-2-yl)benzoic acid]	0.1 to 50	potent SSTR5 antagonistic activity	
CCOc1cc(CN2CCC3(CC2)CN(c2ccc(C(=O)O)cc2)C3)c(-c2ccc(F)c(F)c2F)cc1C [Example 20, 4-(7-((4-ethoxy-2′,3′,4′-trifluoro-5-methyl-[1,1′-biphenyl]-2-yl)methyl)-2,7-diazaspiro[3,5]nonan-2-yl)benzoic acid]	50 to 200		
CCOc1cc(CN2CC3(CC(=O)N(c4ccc(C(=O)O)cc4)C3)C2)ccc1F [Example 21, 4-(2-(3-ethoxy-4-fluorobenzyl)-7-oxy-2,6-diazaspiro[3.4]octan-6-yl)benzoic acid]	> 200		
O=C(O)c1ccc(N2CC3(CC2=O)CN(Cc2cc(C(F)(F)F)ccc2C2CC2)C3)cc1 [Example 23, 4-(2-(2-cyclopropyl-5-(trifluoromethyl)benzyl)-7-oxo-2,6-diazaspiro[3.4]octyl-6-yl)benzoic acid]	> 200		
CCOc1cc(CN2CCC3(CC2)CN(c2ccc(C(=O)O)cc2)C3)ccc1F [Example 24, 4-(7-(3-ethoxy-4-fluorobenzyl)-2,7-diazaspiro[3.5]nonan-2-yl)benzoic acid]	50 to 200		
CCOc1cc(CN2CC3(CC(=O)N(c4ccc(C(=O)O)cc4)C3)C2)ccc1O [Example 26, 4-(2-(3-ethoxy-4-hydroxybenzyl)-7-oxo-2,6-diazaspiro[3.4]octyl-6-yl)benzoic acid]	> 200		

Next, values leading:

IC50 (hSSTR5) [nM]	SSTR5 antagonistic activity (in words) (hSSTR5)	IC50 (mSSTR5) [nM]	SMILES
50 to 200			CCOc1cc(CN2CCC3(CCC(=O)N(c4ccc(C(=O)O)cc4)C3)CC2)cc(OCC)c1-c1ccc(F)cc1 [Example 1, 4-(9-((2,6-diethoxy-4′-fluoro-[1,1′-biphenyl]-4-yl)methyl)-3-oxo-2,9-diazaspiro[5.5]undec-2-yl)benzoic acid]
0.1 to 50	potent SSTR5 antagonistic activity	50 to 200	CCOc1cc(CN2CCC3C(CCN3c3ccc(C(=O)O)cc3)C2)cc(OCC)c1-c1ccc(F)cc1 (stereo not drawn) [Example 2, 4-(5-((2,6-diethoxy-4′-fluoro-[1,1′-biphenyl]-4-yl)methyl)octahydro-1H-pyrrolo[3,2-c]pyridin-1-yl)benzoic acid]
50 to 200			CCOc1cc(CN2CCC(C3CN(c4ccc(C(=O)O)cc4)C3)CC2)cc(OCC)c1-c1ccc(F)cc1 [Example 4, 4-(3-(1-((2,6-diethoxy-4′-fluoro-[1,1′-biphenyl]-4-yl)methyl)piperidin-4-yl)azetidin-1-yl)benzoic acid]
50 to 200			CCOc1cc(CN2CCC3(CC2)CN(c2ccc(C(=O)O)cc2)CCO3)cc(OCC)c1-c1ccc(F)cc1 [Example 5]
0.1 to 50	potent SSTR5 antagonistic activity	0.1 to 50	CCOc1cc(CN2CC3(CC(=O)N(c4ccc(C(=O)O)cc4)C3)C2)cc(OCC)c1-c1ccc(F)cc1 [Example 7, 4-(2-((2,6-diethoxy-4′-fluoro-[1,1′-biphenyl]-4-yl)methyl)-7-oxo-2,6-diazaspiro[3.4]octane-6-yl)benzoic acid]
> 200			CCOc1cc(CN2CCC(N3CCN(S(=O)(=O)c4ccc(OC(F)(F)F)cc4)CC3)CC2)cc(OCC)c1-c1ccc(F)cc1 [Example 13]
> 200			CCOc1cc(CN2CCN(S(=O)(=O)c3ccc(OC(F)(F)F)cc3)CC2)cc(OCC)c1-c1ccc(F)cc1 [Example 16, 1-((2,6-diethoxy-4′-fluoro-[1,1′-biphenyl]-4-yl)methyl)-4-((4-(trifluoromethoxy)phenyl)sulfonyl)piperazine]
0.1 to 50	potent SSTR5 antagonistic activity		CCOc1cc(CN2CCC3(CC2)CN(c2ccc(C(=O)O)cc2)C3=O)cc(OCC)c1-c1ccc(F)cc1 [Example 18, 4-(7-((2,6-diethoxy-4′-fluoro-[1,1′-biphenyl]-4-yl)methyl)-1-oxo-2,7-diazaspiro[3.5]nonan-2-yl)benzoic acid]
> 200			CCOc1cc(CN2CC3(CC(=O)N(c4ccc(C(=O)O)cc4)C3)C2)ccc1C [Example 22, 4-(2-(3-ethoxy-4-methylbenzyl)-7-oxy-2,6-diazaspiro[3.4]octan-6-yl)benzoic acid]
50 to 200			CCOc1cc(CN2CCC3(CC2)CN(c2ccc(C(=O)O)cc2)C3)ccc1N(CC)CC [Example 25, 4-(7-(4-(diethylamino)-3-ethoxybenzyl)-2,7-diazaspiro[3.5]nonan-2-yl)benzoic acid]

From patent US20250066359A1, “SOMATOSTATIN RECEPTOR SUBTYPE 5 ANTAGONISTS, AND PHARMACEUTICAL COMPOSITION AND USE THEREOF” (SHANGHAI INSTITUTE OF MATERIA MEDICA, CHINESE ACADEMY OF …, priority 2021, published 2025)
